In patent publication US5948793A, “3-pyridyloxymethyl heterocyclic ether compounds useful in controlling neurotransmitter release” (Abbott Laboratories, priority 1995, dated 1999) one finds Ki data, which are given here for 34 molecules.

Structures are written as SMILES. Counter-ions that a name gives are not always drawn. Like-named read-outs stand apart in the source and are kept apart here.

The Ki is a dissociation constant, usually derived from enzyme kinetics or from competition with a known ligand.

This assay has as its target neuronal nicotinic cholinergic channel receptors. The assay is described as follows: [3H]-cytisine displacement binding to neuronal nicotinic cholinergic channel receptors. It counts as rat (crude synaptic membranes from whole rat brain). To be noted: read-out: Receptor Binding Ki. How it is done:
B. Protocol For Determination of Nicotinic Cholinergic Channel Receptor Binding Potencies of Ligands
Binding of [^3 H]-cytisine ([^3 H]-CYT) to nicotinic receptors was accomplished using crude synaptic membrane preparations from whole rat brain (Pabreza et al., Molecular Pharmaol., 1990, 39:9). Washed membranes were stored at -80° C. prior to use. Frozen aliquots were slowly thawed and resuspended in 20 volumes of buffer (containing: 120 mM NaCl, 5 mM KCl, 2 mM MgCl2, 2 mM CaCl2 and 50 mM Tris-Cl, pH 7.4 @4° C.). After centrifuging at 20,000×g for 15 minutes, the pellets were resuspended in 30 volumes of buffer. Homogenate (containing […]) was added to triplicate tubes containing concentrations of test compound and [^3 H]-CYT (1.25 nM) in a final volume of 500 μL. Samples were incubated for 60 minutes at 4° C., then rapidly filtered through Whatman GF/B filters presoaked in 0.5% polyethylimine using 3×4 mL of ice-cold buffer. The filters are counted in 4 mL of Ecolume® (ICN). […] Alternately, data were expressed as a percentage of the total specific binding.

Setting [1] is: Table 2, [3H]-cytisine 1.25 nM, 60 min at 4° C.

Consider `CN1CCC[C@H]1COc1cncc(C(F)(F)F)c1` [Example 44, 3-(1-methyl-2-(S)-pyrrolidinylmethoxy)-5-trifluoromethylpyridine dihydrochloride], for which the Ki under setting [1] was 1.8 nM.

Consider `C=CCN1CCC[C@H]1COc1cccnc1` [Example 82, 3-((1-allyl-2-(S)-pyrrolidinyl)methoxy)pyridine dihydrochloride], for which the Ki under setting [1] came to 72.4 nM.

In the case of `CCC[C@H]1CCN[C@H]1COc1cccnc1` (relative stereo) [Example 61, 3-((cis-3-propyl-2-pyrrolidinyl)methoxy)pyridine dihydrochloride], the Ki under setting [1] came to 1.3 nM.

Consider `CC(Oc1cccnc1)[C@@H]1CCCN1C` (stereo partly drawn) [Example 6, 3-(a-methyl-(1-methyl-2-(S)-pyrrolidinyl)methoxy)pyridine hydrochloride], for which the Ki is 6.7 nM.

Take `Cc1ccc(OC[C@H]2CCCN2C)cn1` [Example 36, 6-methyl-3-((1-methyl-2-(R)-pyrrolidinyl)methoxy)pyridine dihydrochloride]: the Ki is 26 nM.

Regarding `CN1CCC[C@H]1CCOc1ccc(Cl)nc1` [Example 105, 3-(2-(1-methyl-2-(S)-pyrrolidinyl)ethoxy-6-chloropyridinedihydrochloride], the Ki under setting [1] was 33.1 nM.

Regarding `CN1CCC[C@@H]1COc1ccc(Cl)nc1` [Example 51, 3-((1-methyl-2-(R)-pyrrolidinyl)methoxy-6-chloropyridinedihydrochloride], under setting [1], the Ki stood at 4.5 nM.

As for `CN1CCC[C@H]1COc1ccc(Cl)nc1` [Example 55, 6-chloro-3-((1-methyl-2-(S)-pyrrolidinyl)methoxy)pyridine dihydrochloride], under setting [1], the Ki stood at 0.63 nM.

As for `Clc1cncc(OC[C@@H]2CCCN2)c1` [Example 15, 5-chloro-3-(2-(S)-pyrrolidinylmethoxy)pyridine dihydrochloride], the Ki under setting [1] was found to be 0.13 nM.

As to `FC(F)(F)c1cncc(OC[C@@H]2CCCN2)c1` [Example 66, 3-(2-(S)-pyrrolidinylmethoxy)-5-trifluoromethylpyridine dihydrochloride], the Ki under setting [1] was 4 nM.

For the molecule `Cc1ncccc1OC[C@@H]1CCN1C` [Example 30, 2-Methyl-3-((1-methyl-2-(S)-azetidinyl)methoxy)pyridine dihydrochloride], the Ki under setting [1] came out at 129 nM.

For the molecule `CN1CCC[C@@H]1COc1cncc(Cl)c1` [Example 34, 5-chloro-3-((1-methyl-2-(R)-pyrrolidinyl)methoxy)pyridine dihydrochloride], the Ki worked out at 11 nM.

On to `Clc1ncccc1OC[C@@H]1CCCN1` [Example 43, 2-chloro-3-(2-(S)-pyrrolidinylmethoxy)pyridine dihydrochloride], for which the Ki under setting [1] came out at 18.6 nM.

As for `CN1CC[C@@H]1COc1cccnc1` [Example 63, 3-((1-methyl-2-(R)-azetidinyl)methoxy)pyridine dihydrochloride], the Ki under setting [1] is 1.4 nM.

Regarding `CN1C[C@@H](F)C[C@H]1COc1cccnc1` [Example 78, 3-((cis-4-fluoro-1-methyl-2-(S)-pyrrolidinyl)methoxy)pyridine dihydrochloride], the Ki under setting [1] stood at 5.77 nM.

Regarding `Cc1cncc(OC[C@@H]2CCCN2C)c1` [Example 73, 5-methyl-3-(1-methyl-2-(S)-pyrrolidinylmethoxy)pyridine dihydrochloride], the Ki under setting [1] came to 0.48 nM.

Regarding `FC(F)(F)c1cncc(OC[C@@H]2CCN2)c1` [Example 70, 3-(2-(S)-azetidinylmethoxy)-5-trifluoromethylpyridine dihydrochloride], under setting [1], the Ki turned out to be 0.6 nM.

For the molecule `CCC[C@H]1CCN(C)[C@H]1COc1cccnc1` (relative stereo) [Example 60, 3-((cis-1-methyl-3-propyl-2-pyrrolidinyl)methoxy)pyridine dihydrochloride], the Ki under setting [1] stood at 51 nM.

`CN1CCC[C@H]1COc1cncc2ccccc12` [Example 32, 4-(1-methyl-2-(S)-pyrrolidinylmethoxy)isoquinoline hydrochloride]: the Ki turned out to be 110 nM.

Regarding `CN1C[C@H](CC#N)C[C@H]1COc1cccnc1` [Example 50, 3-((trans-4-cyanomethyl-1-methyl-2-(S)-pyrrolidinyl)methoxy)pyridine dihydrochloride], under setting [1], the Ki was 5.6 nM.

Turning to `CO[C@@H]1C[C@@H](COc2cccnc2)N(C)C1` [Example 47, 34 (trans-4-methoxy-1-methyl-2-(S)-pyrrolidinyl)methoxy)pyridine dihydrochloride], the Ki under setting [1] is 23 nM.

Turning to `CN1CCC[C@H]1COc1cnccn1` [Example 3, 2-((1-methyl-2-(S)-pyrrolidinyl)methoxy)pyrazine fumarate], the Ki under setting [1] amounted to 20 nM.

Take `Brc1cncc(OC[C@@H]2CCN2)c1` [Example 67, 3-(2-(S)-azetidinylmethoxy)-5-bromopyridine dihydrochloride]: under setting [1], the Ki amounted to 0.2 nM.

On to `C[C@H]1CC[C@@H](COc2cccnc2)N1C` [Example 22, 3-((cis-1,5-dimethyl-2-(S)-pyrrolidinyl)methoxy)pyridine dihydrochloride], for which the Ki is 25 nM.

For `CN1CCC[C@@H]1COc1ccc(Cl)nn1` [Example 5, oxalate], the Ki is 87 nM.

As to `CCc1cncc(OC[C@@H]2CCCN2C)c1` [Example 75, 5-ethyl-3-(1-methyl-2-(S)-pyrrolidinylmethoxy)pyridine dihydrochloride], the Ki under setting [1] came out at 0.32 nM.

`Cc1ncccc1OC[C@@H]1CCCN1C` [Example 53, 2-methyl-3-(1-methyl-2-(S)-pyrrolidinylmethoxy)pyridine dihydrochloride]: the Ki under setting [1] worked out at 28 nM.

On to `Cc1ncccc1OC[C@H]1CCN1` [Example 41, 2-methyl-3-(2-(R)-azetidinylmethoxy)pyridine dihydrochloride], for which, where the note is “Table 2, [3H]-cytisine 1.25 nM, 60 min at 4° C., dihydrochloride”, the Ki was 9.9 nM.

For `CO[C@H]1CN[C@H](COc2cccnc2)C1` [Example 74, 3-((trans-4-methoxy-2-(S)-pyrrolidinyl)methoxy)pyridine dihydrochloride], under setting [1], the Ki is 59 nM.

For the molecule `FC(F)(F)c1cncc(OC[C@H]2CCCN2)c1` [Example 69, 3-(2-(R)-pyrrolidinylmethoxy)-5-trifluoromethylpyridine dihydrochloride], the Ki under setting [1] came out at 2.1 nM.

`C[C@@H]1C[C@@H](COc2cccnc2)N(C)C1` [Example 24, 3-((trans-1,4-dimethyl-2(S)-pyrrolidinyl)methoxy)pyridine dihydrochloride]: the Ki worked out at 4.2 nM.

In the case of `CN1CCCC[C@@H]1COc1cccnc1` [Example 42, 3-((1-methyl-2-(R)-piperidinyl)methoxy)pyridine dihydrochloride], the Ki under setting [1] was 342 nM.

For the molecule `O[C@H]1CN[C@H](COc2cccnc2)C1` [Example 72, 3-((trans-4-hydroxy-2-(S)-pyrrolidinyl)methoxy)pyridine dihydrochloride], under setting [1], the Ki came to 110 nM.

Turning to `Clc1ccc(OC[C@@H]2CCN2)nn1` [Example 85, 3-(2-(S)-azetidinylmethoxy)-6-chloropyridazine hydrochloride], the Ki under setting [1] is 16 nM.
